Experimental data reported in PubChem BioAssay (NCI).
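Results reflect a 48-hour exposure of cells in 96-well plates to compound at five concentrations. The concentration for 50% growth inhibition is given as GI50. TGI denotes the concentration required for complete inhibition of growth.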

How the values were obtained:
Experiment in all cases: NCI tumour cell line growth inhibition, 48 h
[1] = system: NCI-H522 lung
[2] = system: T-47D breast
[3] = system: MDA-MB-231 breast
[4] = system: A549 NSCLC
[5] = system: PC-3 prostate
[6] = system: U251 CNS
[7] = system: BT-549 breast
[8] = system: HT29 colon
[9] = system: SF-539 CNS
[10] = system: SK-MEL-28 melanoma

| SMILES | GI50 [1] [µM] | TGI [1] [µM] | GI50 [2] [µM] | TGI [2] [µM] | GI50 [3] [µM] | TGI [3] [µM] | GI50 [4] [µM] | TGI [4] [µM] | GI50 [5] [µM] | TGI [5] [µM] | GI50 [6] [µM] | TGI [6] [µM] | GI50 [7] [µM] | TGI [7] [µM] | GI50 [8] [µM] | TGI [8] [µM] | GI50 [9] [µM] | TGI [9] [µM] | GI50 [10] [µM] | TGI [10] [µM] |
| --- | --- | --- | --- | --- | --- | --- | --- | --- | --- | --- | --- | --- | --- | --- | --- | --- | --- | --- | --- | --- |
| C=C(C)[C@@H]1CC[C@]2(C(=O)O)CC[C@]3(C)[C@H](CC[C@@H]4[C@@]5(C)C/C(=C/c6ccc(OC)cc6)C(=O)C(C)(C)[C@@H]5CC[C@]43C)[C@@H]12 | 1.97 | 6.65 | 2.84 | 26.7 | 2.32 | 7.78 | 1.3 | 4.56 | 1.74 | 8.24 | 1.86 | 5.68 | 1.89 | 4.34 | 3.09 | 10.2 | 1.94 | 4.16 | 1.91 | 3.72 |
| CC(=O)OC1Oc2cc(C)c(C)cc2-c2oc(=O)c(-c3ccc(F)cc3)cc21 (stereo not given) | 4.53 | 19 | 2.43 | 17.1 | 8.34 | 65 | 4.79 | > 100 | 9.67 | 39.8 | 4.06 | 45.6 | 7.76 | 45.9 | 2.7 | 12.1 | 7.1 | > 100 | 6.89 | 45.7 |
| CC1(C)N=C(N)N=C(N)N1c1cccc(CCCCOc2ccccc2)c1 | 0.0614 | 13.3 | 1.62 | 30.1 | 0.881 | 48.6 | 0.0562 | 98.8 | < 0.01 | 9.96 | 0.0488 | 55.7 | 1.15 | 16.8 | < 0.01 | 15.7 | 0.127 | 17 | 0.521 | 20.6 |
| COc1ccc2cc(Cn3cc[n+](Cc4ccc5ccccc5c4)c3)ccc2c1 | 1.53 | 4.68 | 1.87 | 7.56 | 1.55 | 3.81 | 8.16 | 23.7 | 2.13 | 9.17 | 2.79 | 12.3 | 1.96 | 4.17 | 1.76 | 8.23 | 2.37 | 7.81 | 2 | 5.05 |
| CCCC(=O)Nc1ccc2c(c1)CN1C(=O)c3ccccc3C1=N2 | – | > 100 | – | > 100 | – | > 100 | – | > 100 | – | > 100 | – | > 100 | – | > 100 | – | > 100 | – | > 100 | – | > 100 |
| C=CC[C@@H]1/C=C(\C)C[C@H](C)C[C@H](OC)[C@H]2O[C@@](O)(C(=O)C(=O)N3CCCC[C@H]3C(=O)O[C@H](/C(C)=C/C3CC[C@@H](O)[C@H](OC)C3)[C@H](C)[C@@H](O)CC1=O)[C@H](C)C[C@@H]2OC (stereo not given in full) | 12.7 | 27 | 16.5 | 35.6 | 15.8 | 31.4 | 12.7 | 25.7 | 12.1 | 25.7 | 14.2 | 27.7 | 10 | 27.2 | 17.6 | 33.5 | 17.5 | 34 | 15.2 | 29.2 |
| COc1ccc(-c2nn(-c3cccc(NC(=O)c4cccc(C(F)(F)F)c4)c3)cc2-c2ccncc2)cc1Cl | 0.475 | 3.55 | 2.56 | > 100 | 1.77 | 16.1 | 2.7 | > 100 | 1.98 | > 100 | 1.8 | 17.6 | 3.14 | > 100 | 2.92 | 27.7 | 1.77 | 6.01 | 3.07 | 36 |
| CSC1=Nc2c(c(C)c(C)n2COC(CO)CO)C2=NC(=O)CC(C)N12 (stereo not given) | > 100 | > 100 | > 100 | > 100 | > 100 | > 100 | > 100 | > 100 | > 100 | > 100 | > 100 | > 100 | > 100 | > 100 | > 100 | > 100 | > 100 | > 100 | > 100 | > 100 |
| CC(C(=O)O)/C(=C\c1ccc2c(c1)OCO2)C(=O)O (stereo not given) | – | > 100 | – | > 100 | – | > 100 | – | > 100 | – | > 100 | – | > 100 | – | > 100 | – | > 82.2 | – | > 100 | – | > 100 |
| COc1ccc(OC)c(/C=C2\COc3ccc(O)c(O)c3C2=O)c1 | 0.219 | 0.58 | 2.64 | 15.2 | 2.74 | 11.8 | 3.07 | 11.9 | 1.82 | 6.82 | 2.21 | 10.5 | 1.71 | 6.71 | 2.68 | 6.6 | 2.23 | 5.19 | 2.65 | 7.51 |
